Source: patent US20240182475A1 (Université de Lausanne, priority 2021, published 2024)

Experiments:
recombinant human CSE = recombinant human CSE (Homo sapiens, UniProt P32929); experiment: CSE activity (AzMC probe assay), H2S production by recombinant human CSE; format: biochemical; conditions: for CSE production of H2S (AzMC fluorescence, kinetic 2 h): 50 uM, 2 μg rCSE, 10 mM L-cysteine, 5 uM PLP, Tris-HCl pH 8, vs vehicle
Description: The activity of recombinant human CSE (rCSE) was tested in the presence of C5, compound 8 (50 uM), Z20 compound 13 (50 uM) or vehicle (DMSO). Briefly, compounds were added in reaction buffer (50 mM Tris-HCl, pH 8) containing 2 μg of rCSE, 10 mM CSE substrate L-cysteine, 5 uM pyridoxal 5′-phosphate (PLP). After addition of 10 μM of the H2S sensitive fluorescent probe 7-azido-4-methylcoumarin (AzMC) in a total volume of 100 μl, fluorescence was immediately measured in kinetic mode for 2 h at 37° C. with SpectraMax M5 reader, with excitation and emission wavelengths of 365 nm and 450 nm, respectively. Statistical analysis was determined using simple linear regression with p<0.0001 for C5 vs. vehicle and p<0.0002 for Z20 vs. vehicle.
Recombinant human CSE (1 μg/well) was incubated with various concentrations of compounds (all in final 0.1% DMSO), or with 0.1% DMSO as a control, in 10 mM sodium phosphate buffer pH 8.2. Next, 10 mM L-cysteine and 1 mM PLP and 10 μM of the probe AzMC were then added to reach 100 μL total volume. Fluorescence was measured for 3 h at 37° C. with excitation and emission wavelengths of 365 nm and 450 nm, respectively, in a 96-well half area black plate with transparent bottom.
Dose-response curve of each compound was performed, using triplicate wells for each tested doses. The background (10 mM sodium phosphate buffer with L-cysteine, PLP and AzMC) was subtracted from all values. Each mean value was converted to percent activity (0% defined as the smallest mean in each data set, 100% defined as the highest mean in each data set). The data were normalized using the four parameter logistic model (4PL) equation to calculate EC50 using GraphPad Prism.

[1] = test system: primary human chondrocytes; experiment: Primary human chondrocyte calcification (Alizarin red); format: cell-based; conditions: secondary CPP 24 h, 50 uM
Description: (a) WT and Cse-deficient chondrocytes were incubated with a CSE activator (SU004, 50 μM) previously identified by high-through put screen, or with the equivalent volume of DMSO (0.1%) for 24 hours in calcification medium. STS 25 mM was used as a positive control for calcification inhibition. Calcium-containing crystals were stained with Alizarin red and quantified. (b) Cytotoxicity was assessed by LDH measurement and expressed as % over 100% cytotoxicity. (c) IL-6 secretion was measured by ELISA in supernatant of WT chondrocytes incubated with SU004 50 μM or STS 25 mM for 24 hours in calcification medium. (d) Primary human chondrocytes from 3 OA patients (P1, P2, P3) were incubated with SU004 50 μM, or with the equivalent volume of DMSO (0.1%) for 24 hours in calcification medium. Calcium-containing crystals were stained with Alizarin red and quantified. (e) Cytotoxicity was assessed by LDH measurement and expressed as % over 100% cytotoxicity. (f) IL-6 secretion was measured by ELISA in supernatant of human chondrocytes incubated for 24 hours with SU004 50 μM in calcification medium. *p<0.05, ** p<0.01, ****p<0.0001.
1. Alizarin red staining of primary human chondrocytes stimulated with secondary CPP for 24 h in DMEM+10% FBS and treated or not with 50 uM of compounds.
Chondrocytes were isolated from cartilage pieces incubated overnight in the digestion enzyme Liberase™ (Roche). […]

MOVAS cells = experiment: MOVAS cell calcification assay (Alizarin red); format: cell-based, mouse; conditions: for Mineralization (Alizarin red): 50 uM
Description: A) Alizarin red staining of MOVAS cells stimulated with sCPP for 24 h in DMEM+10% FBS and treated or not with 50 uM of compounds. […] Statistical analysis was determined using one-way ANOVA with ***p<0.001. C) Percentage of cytotoxicity (LDH %) in MOVAS treated or not with compounds for 24 h. D) MOVAS cells were seeded onto half-area 96-well plate and incubated overnight. Then C5 or C6 at 50 uM or vehicle (DMSO), L-cysteine at 10 mM, PLP at 5 uM and the H2S sensitive fluorescent probe AzMC at 10 μM were added. The fluorescence was immediately measured in kinetic mode for 2 h at 37° C. with SpectraMax M5 reader, with excitation and emission wavelengths of 365 nm and 450 nm, respectively.
A) Alizarin red staining of Movas cells stimulated with sCPP for 24 h in DMEM+10% FBS and treated or not with 50 uM of Z20. […] C) Percentage of cytotoxicity (LDH %) in murine chondrocytes treated or not with Z20 for 24 h. Statistical analysis was determined using one-way ANOVA with ***p<0.001.
Alizarin red staining of MOVAS cells stimulated with sCPP for 24 h in DMEM+10% FBS and treated or not with different concentrations of compounds (A: C6) and (B: Z20). The graphs show Alizarin red absorbance at 570-630 nm. Statistical analysis was determined using one-way ANOVA with *p<0.05, **p<0.01, ***p<0.001.
CPP were generated by preparing 20 ml DMEM containing 10% FBS, 1 mmol/L CaCl2, 3.5 mmol/L inorganic phosphate (1.36 mmol/L NaH2PO4 and 2.14 mmol/L Na2HPO4) (Aghagolzadeh et al. Atherosclerosis, 2016). After 7 days incubation at 37° C., the suspension was centrifuged at 25000 g for 2 h at 4° C., and the pellet containing CPP was resuspended in 1 ml DMEM and stored at −20° C. until further use.
Mouse vascular smooth muscle cell line (MOVAS) cells were cultured according to the manufacturer's guidelines in DMEM culture medium supplemented with 10% FBS. Cells were cultured at 37° C. in a humidified atmosphere with 5% CO2. All cell culture experiments in 96-well plates were performed in triplicates and were repeated independently two times.
For calcification experiments, cells were seeded in 96-well plates at a density of 50,000 cells/well and left to attach for 18 h. Calcification of cell monolayers was induced by CPP (equivalent to 50 μg Ca/mL) for 24 h at 37° C., 5% CO2 in presence of various concentrations of compounds (all in final 0.1% DMSO), or of 0.1% DMSO as a control, to reach a final volume of 200 μl/well. Calcium deposition was assessed by 0.5% w/v Alizarin Red staining (pH 4.2). Briefly, after PBS washing, methanol fixation for 10 min at 4° C., and milli-Q water washing, cells were incubated for 60 min with 200 μL Alizarin Red solution and then washed four times with milli-Q water. Quantification was performed after crystal dissolution with cetylpyridinium chloride (10%) for 18 h. The absorbance was measured at 570 and 630 nm using the Spectramax M5e reader (Molecular Devices). The background (alizarin red staining obtained with cells in the absence of CPP) was subtracted from all values.

Chain of recombinant human CSE (P32929 whole entry): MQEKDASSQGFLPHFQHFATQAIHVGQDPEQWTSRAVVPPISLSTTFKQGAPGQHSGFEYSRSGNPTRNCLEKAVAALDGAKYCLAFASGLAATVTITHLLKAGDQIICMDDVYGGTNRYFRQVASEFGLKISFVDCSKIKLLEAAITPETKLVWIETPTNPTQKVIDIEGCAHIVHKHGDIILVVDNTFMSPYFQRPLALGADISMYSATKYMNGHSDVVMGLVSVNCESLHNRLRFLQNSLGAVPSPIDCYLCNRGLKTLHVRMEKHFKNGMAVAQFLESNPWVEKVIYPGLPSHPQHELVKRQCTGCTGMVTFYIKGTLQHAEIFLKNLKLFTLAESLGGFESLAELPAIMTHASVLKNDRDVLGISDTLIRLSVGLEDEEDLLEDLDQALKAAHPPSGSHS

CCn1cnc2c(Nc3cnn(CC4CCCO4)c3)ncnc21 (stereo not drawn) [Compound 13]
CSE production of H2S (AzMC fluorescence, kinetic 2 h) (recombinant human CSE): augments CSE production of H2S | Mineralization (Alizarin red) [1]: inhibit primary human chondrocyte mineralization | Mineralization (Alizarin red) (MOVAS cells; sCPP 24 h): inhibits MOVAS cells mineralization | Mineralization (Alizarin red absorbance 570-630 nm) (MOVAS cells; sCPP 24 h, different concentrations): Dose-dependent effect

Cn1ncc2c(Nc3cnn(CC4CCCO4)c3)ncnc21 (stereo not drawn) [Compound 8, N-{1-methyl-1H-pyrazolo[3,4-d]pyrimidin-4-yl}-1-[(oxolan-2-yl)methyl]-1H-pyrazol-4-amine]
CSE production of H2S (AzMC fluorescence, kinetic 2 h) (recombinant human CSE): augments CSE production of H2S | EC50 (recombinant human CSE; EC50 calculated by the four-parameter logistic model): 0.0686 µM | Mineralization (Alizarin red) [1]: inhibit primary human chondrocyte mineralization | inhibition at 2 µM (MOVAS cells; Mus musculus, MOVAS, at 2 uM, read-out: Calcification assay Max calcification inhibition (%) at the indicated dose of compound): 38% | Mineralization (Alizarin red) (MOVAS cells; sCPP 24 h): inhibit murine vascular smooth muscle cells (MOVAS cells) mineralization
